According to PMC7046902, “Daphnane Diterpenoids from Trigonostemon lii and Inhibition Activities Against HIV-1” (Natural Products and Bioprospecting, 2020):
Converted amounts (≈) assume the structure as drawn.

How the values were obtained:
in vitro = format: cell-based; conditions: human; C8166 cells, MTT, 3 days; read-out: cytotoxicity CC50
Experimental: (§1) Cellular toxicity of compounds was assessed by MTT method. Briefly, cells were seeded on a microtiter plate in the absence or presence of various concentrations of compounds in triplicate and incubated at 37 °C in a humid atmosphere of 5% CO2 for 3 days. Twenty microliters of MTT reagent (5 mg/mL in PBS) was added to each well, then incubated at 37 °C for 4 h, 100 μL of 50% DMF-20% SDS was added. After the formazan was dissolved completely, the plates were read on a Bio-Tek ELx 800 ELISA reader at 595 nm/630 nm (A595/630). The cytotoxic concentration that caused the reduction of viable cells by 50% (CC50) was calculated from dose–response curve.
as §1, with “b. MTT-based cytotoxicity assay. Cellular” for “Cellular”, “4h,” for “4 h,”, “595nm/630” for “595 nm/630”, “dose-response curve ^[2].” for “dose–response curve.”

HIV-1IIIB = assay: microbe, parasite or virus in culture; format: cell-based; conditions: for EC50: Human immunodeficiency virus 1, 72 h, read-out: anti-HIV-1 EC50 (syncytia formation induced by HIV-1IIIB)
Experimental: (§2) In the presence of 100 μL various concentrations of compounds, C8166 cells (4 × 10^5/mL) were infected with virus (HIV-1IIIB) at a multiplicity of infection (M.O.I) of 0.06. The final volume per well was 200 μL. Control assays were performed without the testing compounds in HIV-1IIIB infected and uninfected cultures. AZT was included as positive control. After 3 days of culture, the cytopathic effect (CPE) was measured by counting the number of syncytia (multinucleated giant cell). Percentage inhibition of syncytia formation was calculated and 50% effective concentration (EC50) was calculated.
as §2, with “c. Syncytia assay. In” for “In”, “(4×10^5/mL)” for “(4 × 10^5/mL)”, “calculated ^[3].” for “calculated.”

pNL4-3gp41(36G)V38E,N42S = format: cell-based, HIV-1; conditions: T20-resistant strain pNL4-3gp41(36G)V38E,N42S in C8166 cells
pNL4-3gp41(36G)V38A,N42T = format: cell-based, HIV-1; conditions: T20-resistant strain pNL4-3gp41(36G)V38A,N42T in C8166 cells
[1] = target: T1, purified recombinant HIV-1 RT (Human immunodeficiency virus type 1 group M subtype B, UniProt P04585); assay: RT (reverse transcriptase) assay, ELISA RT kit; format: biochemical; conditions: read-out: EC50, inhibition of recombinant HIV-1 RT activity (converted)
T1 construct: purified recombinant HIV-1 RT; purchased Roche
Experimental: (§3) HIV-1 RT activity was measured by ELISA RT kit (Roche) using a commercially available kit according to the protocol provided by the manufacturer. Samples were incubated with DIG-labeled-reaction mixture at 37 °C for 15 h. Anti-DIG-POD solution was added afterward followed by substrate ABTS. The absorbance at 405/490 nm (A405/490) was determined in the ELISA reader.
as §3, with “e. RT (reverse transcriptase) assay. HIV-1” for “HIV-1”, “reader ^[4].” for “reader.”

[2] = tested on: fusion of H9/HIV-1IIIB cells with uninfected C8166 cells; assay: cells; conditions: Human immunodeficiency virus 1, C8166, 6 h, read-out: EC50, inhibition of fusion of H9/HIV-1IIIB cells with uninfected C8166 cells
Experimental: (§4) C8166 cells (3 × 10^4) co-cultured with 1 × 10^4 virus (HIV-1IIIB) infected H9 cells in the presence or absence of the compound with various concentrations at 37 °C in a humidified atmosphere of 5% CO2. T20 was used as positive control. After 6 h incubation, the number of syncytia was scored under an inverted microscope [18].
(§5) Co-cultivation assay. C8166 cells (3×10^4) co-cultured with 1×10^4 virus (HIV-1IIIB) infected H9 cells in the presence or absence of the compound with various concentrations at 37 °C in a humidified atmosphere of 5% CO2. Dextran sulfate (DS) was used as positive control. After 6 h incubation, the number of syncytia was scored under an inverted microscope ^[3].

[3] = tested on: fusion of H9/HIV-1IIIB cells with uninfected C8166 cells; conditions: 6 h
Experimental: as §4, §5

HIV-1 = conditions: cited from earlier work
C8166 = assay: in vitro; format: cell-based; conditions: C8166 cells, MTT, 3 days
Experimental: as §1
as §1, with “b. MTT-based cytotoxicity assay. Cellular” for “Cellular”, “4h,” for “4 h,”, “595nm/630” for “595 nm/630”, “dose-response curve ^[2].” for “dose–response curve.”

[4] = C8166 cells, HIV-1IIIB, M.O.I 0.06, 3 days

Compound | CC50 (in vitro) | selectivity index CC50/EC50 (HIV-1IIIB; C8166 cells, HIV-1IIIB) | EC50 (HIV-1IIIB; [4]) | EC50 (syncytium formation) (pNL4-3gp41(36G)V38E,N42S) | EC50 (syncytium formation) (pNL4-3gp41(36G)V38A,N42T) | EC50 [1] | EC50 [2] | anti-HIV-1 EC50 (syncytia formation induced by HIV-1IIIB) (HIV-1IIIB; 1IIIB) | EC50, inhibition of fusion of H9/HIV-1IIIB cells with uninfected C8166 cells [3] | anti-HIV-1 EC50 (HIV-1) | cytotoxicity CC50 (C8166) | anti-HIV-1 EC50 (syncytia formation induced by HIV-1IIIB) (HIV-1IIIB; [4])
CC1CCCCCCC(C)C(=O)OC2C(=CCl)C=C3C2(O)C(O)C2(CO)OC2C2C4OC5(c6ccccc6)OC(C(C)C32O5)C4(O)C(O)(COC(=O)c2ccccc2O)C1 (stereo not drawn) [Compound 5, Trigocherriolide A] | 15.5 µg/mL (≈ 18200 nM) | 5407.67 | 2.87 ng/mL (≈ 3.36 nM) | 2.88 ng/mL (≈ 3.37 nM) | 3.43 ng/mL (≈ 4.02 nM) | 313 µM | 1.06 ng/mL (≈ 1.24 nM) |  |  |  |  | 
Enfuvirtide |  |  |  |  |  |  |  | 97.25 ng/mL | 9.77 ng/mL |  |  | 
C=C1C=C2C3(O)C1OC(=O)C(C)CCCCCCC(C)CC(C)(O)C1(O)C4OC5(c6ccccc6)OC1C(C1OC1(CO)C3O)C2(O5)C4C (stereo not drawn) [Compound 1, Trigonolactone B] | 16.5 µg/mL (≈ 24100 nM) |  | 1.06 ng/mL (≈ 1.55 nM) | 3.30 ng/mL (≈ 4.83 nM) | 2.60 ng/mL (≈ 3.81 nM) | > 439 µM | 2.25 ng/mL (≈ 3.3 nM) |  |  |  |  | 
trigonothyrins F |  |  |  |  |  |  |  |  |  | 0.13 µg/mL |  | 
CC1CCCCCCC(C)C(=O)OC2C(=CCl)C=C3C2(O)C(O)C2(CO)OC2C2C4OC5(c6ccccc6)OC(C(C)C32O5)C4(O)C(C)(O)C1 (stereo not drawn) [Compound 4, Trigocherriolide B] | 14.9 µg/mL (≈ 20800 nM) | 1811.43 | 8.22 ng/mL (≈ 11.5 nM) | 2.97 ng/mL (≈ 4.14 nM) |  | 278 µM | 8.73 ng/mL (≈ 12.2 nM) |  |  |  |  | 
Cc1cn([C@H]2C[C@H](N=[N+]=[N-])[C@@H](CO)O2)c(=O)[nH]c1=O [AZT, reference compound] |  |  |  |  |  |  |  |  |  |  | 1006.69 µg/mL | 5.08 ng/mL
CC1CCCCCCC(C)C(=O)OC2C(=CCl)C=C3C2(O)C(O)C2(CO)OC2C2C4OC5(c6ccccc6)OC(C(C)C32O5)C4(O)C(O)(CO)C1 (stereo not drawn) [Compound 6, Trigocheriolide E] | 18.3 µg/mL (≈ 24900 nM) | 12193.33 | 1.5 ng/mL (≈ 2.05 nM) | 3.74 ng/mL (≈ 5.1 nM) | 3.81 ng/mL (≈ 5.2 nM) | 261 µM | 1.76 ng/mL (≈ 2.4 nM) |  |  |  |  | 
C=C1C=C2C3(O)C1OC(=O)C(C)CCCCCCC(C)CC(O)(CO)C1(O)C4OC5(c6ccccc6)OC1C(C1OC1(CO)C3O)C2(O5)C4C (stereo not drawn) [Compound 3, Trigonolactone E] | 17.5 µg/mL (≈ 25000 nM) | 29610.17 | 0.59 ng/mL (≈ 0.844 nM) | 4.43 ng/mL (≈ 6.34 nM) |  | > 429 µM | 1.85 ng/mL (≈ 2.65 nM) |  |  |  |  | 
C=C1C=C2C3(O)C1OC(=O)C(C)CCCCCCC(C)CC(O)(COC(=O)c1ccccc1O)C1(O)C4OC5(c6ccccc6)OC1C(C1OC1(CO)C3O)C2(O5)C4C (stereo not drawn) [Compound 2, Trigonolactone D] | 8.49 µg/mL (≈ 10400 nM) | 4468.42 | 1.9 ng/mL (≈ 2.32 nM) | 2.72 ng/mL (≈ 3.32 nM) | 5.83 ng/mL (≈ 7.12 nM) | 60.2 µM | 4.62 ng/mL (≈ 5.64 nM) |  |  |  |  | 
trigonothyrins C |  |  |  |  |  |  |  |  |  | 2.19 µg/mL |  | 
